Measurements reported in patent US20240116853A1, “2-HYDROXY-5-[2-(4-(TRIFLUOROMETHYLPHENYL)ETHYLAMINO)]BENZOIC ACID CRYSTAL FORMS AND PREPARATION METHOD THEREFOR” (GNT PHARMA CO., LTD., priority 2020, published 2024).
Converted amounts (≈) assume the structure as drawn.

Tests used:
Alzheimer's disease = conditions: background statement; cited from earlier work
[1] = crystalline form stability test (XRPD after storage at 40° C. and 60% RH for three months); format: physicochemical
Method: In the present disclosure, the experimental conditions of X-ray powder diffraction are as follows. The test was performed by an X-ray powder diffractometer (radiation source Cu-kα, μ=1.5418 Å), and the XRPD spectrum with 2θ value of 3˜40° was scanned. The XRPD spectra of crystalline form I in Example 1 and crystalline form II in Example 2 are shown in FIG. 1 and FIG. 5, respectively, and the XRPD data are shown in Table 1. In order to test the stability of the crystalline form, the crystalline form I in Example 1 and the crystalline form II in Example 2 were subjected to powder diffraction test after being left under 40° C. and 60% relative humidity (RH) conditions for three months, and the results are shown in FIG. 1 and FIG. 5, respectively.
Crystalline form stability test: a certain amount of samples were left under 40° C. and 60% RH conditions for three months, and their powder diffraction results were tested, as shown in FIG. 1.
Crystalline form stability test: a certain amount of samples were left under 40° C. and 60% RH conditions for three months, and their powder diffraction results were tested, as shown in FIG. 5.

[2] = apparent solubility tested by HPLC; format: physicochemical; conditions: for Chromatographic peak area: HPLC peak area of the apparent solubility test; for apparent solubility compared with raw material: HPLC, versus crude raw materials

| crystalline form stability (XRPD characteristic peaks versus initial time) [1] | Chromatographic peak area [2] | apparent solubility compared with raw material [2] | Solubility (apparent solubility) ([2]; tested by HPLC) [µg/mL] | solubility ([2]; thermodynamic from solid, tested by HPLC) [µg/mL] | Structure (SMILES) | effect on Alzheimer's disease in clinical trials (Alzheimer's disease) |
| --- | --- | --- | --- | --- | --- | --- |
|  |  |  |  |  | O=C(O)c1cc(NCCc2ccc(C(F)(F)F)cc2)ccc1O [2-hydroxy-5-[2-(4-(trifluoromethylphenyl)ethylamino)]benzoic acid] | good inhibitory effect on Alzheimer's disease |
| relatively stable | 311308 | higher apparent solubility | 2600 (≈ 7.99 mM) |  | O=C(O)c1cc(NCCc2ccc(C(F)(F)F)cc2)ccc1O [Crystalline form II, 2-hydroxy-5-[2-(4-(trifluoromethylphenyl)ethylamino)]benzoic acid] |  |
| stable and unchanged | 263684 | higher apparent solubility | 1880 (≈ 5.78 mM) |  | O=C(O)c1cc(NCCc2ccc(C(F)(F)F)cc2)ccc1O [Crystalline form I, 2-hydroxy-5-[2-(4-(trifluoromethylphenyl)ethylamino)]benzoic acid] |  |
|  | 249333 |  |  | 1770 (≈ 5.44 mM) | O=C(O)c1cc(NCCc2ccc(C(F)(F)F)cc2)ccc1O [Raw material, 2-hydroxy-5-[2-(4-(trifluoromethylphenyl)ethylamino)]benzoic acid] |  |
